Measurements as given in US9981004B2, “Inhibition of TREM receptor signaling with peptide variants” (SignaBlok, Inc., priority 2009, dated 2018).

Assay: Solubility of CP and CP-A peptides
Assay type: physicochemical
Text: A variety of solvents and carriers can be tested to improve their solubility. Solvents and/or carriers that improve solubility of CP and CP-A include, but are not limited to, ethanol, dimethylsulphoxide (DMSO), dimethyl formamide (DMF), and trifluoracetic acid (TFA). When using DMSO as a solvent, the final concentration used in the cell function experiments may range from 0.063%-0.250%. Stock solutions of CP and CP-A can be prepared in DMSO and used at a 1:2000, 1:1000, or 1:400 dilution. In one embodiment, drug delivery systems (i.e., for example, lipid vesicles) can be used to increase solubility and bioavailability of CP and CP-A.

solubility in aqueous solutions	Substance
insoluble in aqueous solutions	H-GFLSASLVF-OH [CP-A, NH2-Gly-Phe-Leu-Ser-Ala-Ser-Leu-Val-Phe-OH]
insoluble in aqueous solutions	H-GFLSKSLVF-OH [CP, NH2-Gly-Phe-Leu-Ser-Lys-Ser-Leu-Val-Phe-OH]
